Here are results for 4 compounds from patent US7790196B2, “Extracellular vesicles from non-pathogenic amoebae useful as vehicle for transferring a molecule of interest to an eukaryotic cell” (Universite Pierre et Marie Curie- Paris VI, priority 2003, dated 2010).

In series [1] the test system is Dd cells. Put plainly: Cytotoxicity of the cargo molecule towards growing Dd cells (cell counting during growth). The class given is cell-based, Dictyostelium discoideum. The protocol: The growth curve of Dd cells, continuously maintained with HO342 (10 μg/ml) since the initiation of the culture at a density of 3×10^6 cells/ml is shown on FIG. 3a. Images of Dd cells, fixed in 70% MeOH at different times (from 72 h to 216 h), show the aspect of the cells and of their HO342 stained nuclei. Apoptosis might increase as a function of time along the stationary plateau (Tatischeff et al., 2001), and the characteristic much smaller size of apoptotic cells were predominant for the t′216 fixed Dd cells (FIG. 3a).
The capacity of Dd cells to internalise different exogenous molecules was studied. Further, their ability to release vesicles, in particular the “12,000” vesicles, carrying a broad-spectrum of molecules of interest was assessed. Flow cytometry and micro-spectrofluorimetry were used to measure respectively the cell internalisation and the vesicle-mediated release of the fluorescent cargo molecule as a function of incubation time in the growth medium. Growing Dd cells were incubated for different periods of time up to 72 h in the presence of the exogenous molecule. Fractions of the cells were fixed in 2% paraformaldehyde after each one of these increasing incubation times. Simultaneously, the externalised “12,000” vesicles were prepared from aliquots of the growth medium and concentrated (×20). […]

The test system of series [2] is Dd cells. Put plainly: Vesicle-mediated release of cargo molecule from Dd cells (micro-spectrofluorimetry of “12,000” vesicles). The class given is cell-based, Dictyostelium discoideum. The protocol:
The capacity of Dd cells to internalise different exogenous molecules was studied. Further, their ability to release vesicles, in particular the “12,000” vesicles, carrying a broad-spectrum of molecules of interest was assessed. Flow cytometry and micro-spectrofluorimetry were used to measure respectively the cell internalisation and the vesicle-mediated release of the fluorescent cargo molecule as a function of incubation time in the growth medium. Growing Dd cells were incubated for different periods of time up to 72 h in the presence of the exogenous molecule. Fractions of the cells were fixed in 2% paraformaldehyde after each one of these increasing incubation times. Simultaneously, the externalised “12,000” vesicles were prepared from aliquots of the growth medium and concentrated (×20). As controls, Dd cells were grown in parallel without the cargo molecule and handled the same. Moreover, cell counting during growth allowed to check for any cytotoxicity of the studied molecule as a function of time. Cell and vesicle samples were kept at 4° C. until measurements.

Another series concerns Leukemic K562 cells. The settings on record: Asahi et al., 1995; cited from earlier work.

Regarding `CCOc1ccc(-c2nc3ccc(-c4nc5ccc(N6CCN(C)CC6)cc5[nH]4)cc3[nH]2)cc1` [HO342, Hoechst 33342], the “cytotoxicity during incubation with Dd cells in the growth medium” value in the series on Dd cells [1] (HO342 10 μg/ml, continuously since initiation of culture) is reported as “absence of cytotoxicity”.
With `COc1cccc2c1C(=O)c1c(O)c3c(c(O)c1C2=O)C[C@@](O)(C(=O)CO)C[C@@H]3O[C@H]1C[C@H](N)[C@H](O)[C@H](C)O1` [Doxorubicine], the “release of the molecule into vesicles” value with Dd cells [2] is “also released into “12,000” vesicles”.
Turning to `CCCCCC(=O)c1c(O)c(Cl)c(OC)c(Cl)c1O` [DIF], in the series with Leukemic K562 cells, the “differentiation of K562 cells” value was “differentiate and recover the capacity to synthesize haemoglobin”.
With `Cc1cc(O)c2c(=O)c3c(O)cc(O)c4c5c(O)cc(O)c6c(=O)c7c(O)cc(C)c8c1c2c(c34)c(c78)c65` [hypericin], the “toxicity towards Dd cells” value with Dd cells [1] (hypericin 25 μM in growth medium) is given as “without any apparent toxicity”.
